Results as given in ChEMBL document CHEMBL5143523, “Construction and activity evaluation of novel benzodioxane derivatives as dual-target antifungal inhibitors” (Eur J Med Chem, 2022).
Converted amounts (≈) assume the structure as drawn.

Tests used:
Nakaseomyces glabratus = assay: Antifungal activity against Candida glabrata ATCC 0001 assessed as fungal growth inhibition measured after 72 hrs by CLSI protocol based liquid medium dilution method; assay type: functional
Candida tropicalis = assay: Antifungal activity against Candida tropicalis ATCC 1369 assessed as fungal growth inhibition measured after 72 hrs by CLSI protocol based liquid medium dilution method; assay type: functional
Candida albicans [1] = assay: Antifungal activity against Candida albicans ATCC 10231 assessed as fungal growth inhibition measured after 72 hrs by CLSI protocol based liquid medium dilution method; assay type: functional
Aspergillus fumigatus = assay: Antifungal activity against Aspergillus fumigatus KM8001 assessed as fungal growth inhibition measured after 72 hrs by CLSI protocol based liquid medium dilution method; assay type: functional
Pichia kudriavzevii = assay: Antifungal activity against Candida krusei ATCC 6258 assessed as fungal growth inhibition measured after 72 hrs by CLSI protocol based liquid medium dilution method; assay type: functional
Candida albicans [2] = assay: Antifungal activity against Candida albicans assessed as fungal growth inhibition measured after 72 hrs by CLSI protocol based liquid medium dilution method; assay type: functional
Candida albicans [3] = assay: Antifungal activity against fluconazole resistant Candida albicans strain 103 assessed as fungal growth inhibition measured after 72 hrs by CLSI protocol based liquid medium dilution method; assay type: functional
Candida albicans [4] = assay: Antifungal activity against fluconazole resistant Candida albicans strain 904 assessed as fungal growth inhibition measured after 72 hrs by CLSI protocol based liquid medium dilution method; assay type: functional
Candida albicans [5] = assay: Antifungal activity against fluconazole resistant Candida albicans strain 901 assessed as fungal growth inhibition measured after 72 hrs by CLSI protocol based liquid medium dilution method; assay type: functional
Candida albicans [6] = assay: Antifungal activity against fluconazole resistant Candida albicans strain 17# assessed as fungal growth inhibition measured after 72 hrs by CLSI protocol based liquid medium dilution method; assay type: functional
Candida albicans [7] = assay: Antifungal activity against fluconazole resistant Candida albicans strain CaR assessed as fungal growth inhibition measured after 72 hrs by CLSI protocol based liquid medium dilution method; assay type: functional
Candida albicans [8] = assay: Induction of apoptosis in Candida albicans ATCC SC5314 cells assessed as late apoptotic cells at 8 ug/ml incubated for 72 hrs by Annexin V-FITC/PI staining based flow cytometry method (reference value: 0.12%); assay type: functional; details: dose 8 µg/ml
[9] = target: Lanosterol 14-alpha demethylase (Candida albicans (strain SC5314 / ATCC MYA-2876) (Yeast), UniProt P10613); assay: Inhibition of CYP51 in Candida albicans ATCC SC5314 incubated for 30 mins using eburicol as substrate in presence of NADPH by HPLC analysis
Candida albicans [10] = assay: Antifungal activity against Candida albicans ATCC SC5314 assessed as change in squalene level at 4 ug/ml incubated for 48 hrs by LC-MS analysis; assay type: functional; details: dose 4 µg/ml
Candida albicans [11] = assay: Antifungal activity against Candida albicans ATCC SC5314 assessed as change in unknown sterol level at 4 ug/ml incubated for 48 hrs by LC-MS analysis (reference value: 4.3%); assay type: functional; details: dose 4 µg/ml
Candida albicans [12] = assay: Antifungal activity against Candida albicans ATCC SC5314 assessed as decrease in ergosterol content at 4 ug/ml incubated for 48 hrs by LC-MS analysis (reference value: 90.6%); assay type: functional; design: scale not given: the % may be the effect or the level left; details: dose 4 µg/ml
Candida albicans [13] = assay: Induction of apoptosis in Candida albicans ATCC SC5314 cells assessed as necrotic cells at 8 ug/ml incubated for 72 hrs by Annexin V-FITC/PI staining based flow cytometry method (reference value: 3.76%); assay type: functional; details: dose 8 µg/ml
Candida albicans [14] = assay: Induction of apoptosis in Candida albicans ATCC SC5314 cells assessed as early apoptotic cells at 8 ug/ml incubated for 72 hrs by Annexin V-FITC/PI staining based flow cytometry method (reference value: 0.56%); assay type: functional; details: dose 8 µg/ml
Candida albicans [15] = assay: Antifungal activity against Candida albicans ATCC SC5314 assessed as change in eburicol level at 4 ug/ml incubated for 48 hrs by LC-MS analysis (reference value: 1.4%); assay type: functional; details: dose 4 µg/ml
Candida albicans [16] = assay: Antifungal activity against Candida albicans ATCC SC5314 assessed as change in lanosterol level at 4 ug/ml incubated for 48 hrs by LC-MS analysis (reference value: 3.7%); assay type: functional; details: dose 4 µg/ml
Candida albicans [17] = assay: Induction of apoptosis in Candida albicans ATCC SC5314 cells assessed as live cells at 8 ug/ml incubated for 72 hrs by Annexin V-FITC/PI staining based flow cytometry method (reference value: 95.56%); assay type: functional; details: dose 8 µg/ml

Chain of Lanosterol 14-alpha demethylase (P10613 whole entry): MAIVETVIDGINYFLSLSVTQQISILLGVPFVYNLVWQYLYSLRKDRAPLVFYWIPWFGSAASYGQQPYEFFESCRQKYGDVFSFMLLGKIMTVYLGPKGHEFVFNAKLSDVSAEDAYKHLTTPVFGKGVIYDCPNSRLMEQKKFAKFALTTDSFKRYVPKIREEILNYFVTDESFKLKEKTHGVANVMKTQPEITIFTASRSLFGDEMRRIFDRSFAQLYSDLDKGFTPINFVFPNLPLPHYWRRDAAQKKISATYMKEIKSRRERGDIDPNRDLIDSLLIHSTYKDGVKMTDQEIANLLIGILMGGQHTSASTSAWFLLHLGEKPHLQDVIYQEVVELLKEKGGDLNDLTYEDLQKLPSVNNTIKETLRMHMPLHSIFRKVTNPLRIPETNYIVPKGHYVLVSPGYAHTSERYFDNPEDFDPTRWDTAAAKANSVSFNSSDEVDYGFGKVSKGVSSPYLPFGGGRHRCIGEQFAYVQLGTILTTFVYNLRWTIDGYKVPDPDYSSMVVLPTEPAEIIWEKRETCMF

| SMILES | MIC50 (Nakaseomyces glabratus) | MIC50 (Candida tropicalis) | MIC50 (Candida albicans [1]) | MIC50 (Aspergillus fumigatus) | MIC50 (Pichia kudriavzevii) | further results |
| --- | --- | --- | --- | --- | --- | --- |
| O=C(N[C@@H](Cn1ccnc1)c1ccccc1)c1ccc2c(c1)OCCO2 | 0.25 µg/mL (≈ 0.716 µM) | 0.25 µg/mL (≈ 0.716 µM) | 0.25 µg/mL (≈ 0.716 µM) | > 8 µg/mL | 0.5 µg/mL (≈ 1.43 µM) |  |
| CCC(C)[C@H](NC(=O)c1cccc2c1OCCO2)C(=O)Nc1ccncc1 (stereo not given in full) | 2 µg/mL (≈ 5.41 µM) | 0.5 µg/mL (≈ 1.35 µM) | 1 µg/mL (≈ 2.71 µM) | 4 µg/mL (≈ 10.8 µM) | 0.5 µg/mL (≈ 1.35 µM) |  |
| CCC(C)[C@H](NC(=O)c1cccc2c1OCCO2)C(=O)Nc1cccnc1 (stereo not given in full) | 1 µg/mL (≈ 2.71 µM) | 0.5 µg/mL (≈ 1.35 µM) | 0.5 µg/mL (≈ 1.35 µM) | > 8 µg/mL | 2 µg/mL (≈ 5.41 µM) |  |
| CC(C)[C@H](NC(=O)c1cccc2c1OCCO2)C(=O)N[C@@H](Cn1ccnc1)c1ccccc1 | 0.5 µg/mL (≈ 1.11 µM) | 0.5 µg/mL (≈ 1.11 µM) | 0.25 µg/mL (≈ 0.557 µM) | > 8 µg/mL | 0.25 µg/mL (≈ 0.557 µM) | MIC50 (Candida albicans [2]): 0.25 µg/mL (≈ 0.557 µM) |
| CCC(C)[C@H](NC(=O)c1ccc2c(c1)OCCO2)C(=O)N[C@@H](Cn1ccnc1)c1ccccc1 (stereo not given in full) | 0.125 µg/mL (≈ 0.27 µM) | 0.5 µg/mL (≈ 1.08 µM) | 0.125 µg/mL (≈ 0.27 µM) | 2 µg/mL (≈ 4.32 µM) | 0.25 µg/mL (≈ 0.54 µM) | MIC50 (Candida albicans [3]): 1 µg/mL (≈ 2.16 µM); MIC50 (Candida albicans [4]): 4 µg/mL (≈ 8.65 µM); MIC50 (Candida albicans [5]): 2 µg/mL (≈ 4.32 µM); MIC50 (Candida albicans [6]): 2 µg/mL (≈ 4.32 µM); MIC50 (Candida albicans [7]): 2 µg/mL (≈ 4.32 µM) |
| CC(C)[C@H](NC(=O)c1cccc2c1OCCO2)C(=O)Nc1ccncc1 | 0.5 µg/mL (≈ 1.41 µM) | 0.5 µg/mL (≈ 1.41 µM) | 0.5 µg/mL (≈ 1.41 µM) | 4 µg/mL (≈ 11.3 µM) | 1 µg/mL (≈ 2.81 µM) | MIC50 (Candida albicans [2]): 0.5 µg/mL (≈ 1.41 µM) |
| CCOC(=O)[C@@H](NC(=O)c1cccc2c1OCCO2)C(C)C |  |  |  |  |  | MIC50 (Candida albicans [2]): 16 µg/mL (≈ 52.1 µM) |
| CC(C)[C@H](NC(=O)c1ccc2c(c1)OCCO2)C(=O)N[C@@H](Cn1cncn1)c1ccccc1 | 0.5 µg/mL (≈ 1.11 µM) | 0.25 µg/mL (≈ 0.556 µM) | 0.25 µg/mL (≈ 0.556 µM) | > 8 µg/mL | 0.25 µg/mL (≈ 0.556 µM) |  |
| CCC(C)[C@H](NC(=O)c1ccc2c(c1)OCCO2)C(=O)Nc1ccncc1 (stereo not given in full) | 2 µg/mL (≈ 5.41 µM) | 0.5 µg/mL (≈ 1.35 µM) | 0.5 µg/mL (≈ 1.35 µM) | > 8 µg/mL | 1 µg/mL (≈ 2.71 µM) |  |
| O=C(N[C@@H](Cn1cncn1)c1ccccc1)c1ccc2c(c1)OCCO2 | 0.125 µg/mL (≈ 0.357 µM) | 0.5 µg/mL (≈ 1.43 µM) | 0.125 µg/mL (≈ 0.357 µM) | > 8 µg/mL | 0.5 µg/mL (≈ 1.43 µM) |  |
| O=C(NCCc1ccccc1)c1cccc2c1OCCO2 |  |  |  |  |  | MIC50 (Candida albicans [2]): 8 µg/mL (≈ 28.2 µM) |
| CC(C)[C@H](NC(=O)c1cccc2c1OCCO2)C(=O)Nc1cccnc1 | 1 µg/mL (≈ 2.81 µM) | 1 µg/mL (≈ 2.81 µM) | 0.5 µg/mL (≈ 1.41 µM) | > 8 µg/mL | 0.5 µg/mL (≈ 1.41 µM) |  |
| CC(C)[C@H](NC(=O)c1ccc2c(c1)OCCO2)C(=O)N[C@@H](Cn1ccnc1)c1ccccc1 | 0.25 µg/mL (≈ 0.557 µM) | 0.125 µg/mL (≈ 0.279 µM) | 0.25 µg/mL (≈ 0.557 µM) | 4 µg/mL (≈ 8.92 µM) | 0.5 µg/mL (≈ 1.11 µM) |  |
| O=C(N[C@@H](Cn1cncn1)c1ccccc1)c1cccc2c1OCCO2 | 1 µg/mL (≈ 2.85 µM) | 0.5 µg/mL (≈ 1.43 µM) | 0.125 µg/mL (≈ 0.357 µM) | > 8 µg/mL | 0.25 µg/mL (≈ 0.714 µM) |  |
| O=C(N[C@@H](Cn1ccnc1)c1ccccc1)c1cccc2c1OCCO2 | 0.5 µg/mL (≈ 1.43 µM) | 0.5 µg/mL (≈ 1.43 µM) | 0.5 µg/mL (≈ 1.43 µM) | > 8 µg/mL | 1 µg/mL (≈ 2.86 µM) |  |
| OC(Cn1cncn1)(Cn1cncn1)c1ccc(F)cc1F [FLUCONAZOLE] | 0.25 µg/mL (≈ 0.816 µM) | 0.5 µg/mL (≈ 1.63 µM) | 0.25 µg/mL (≈ 0.816 µM) | > 8 µg/mL | 0.5 µg/mL (≈ 1.63 µM) | Activity (Candida albicans [8]): 3.02%; MIC50 (Candida albicans [3]): > 8 µg/mL; IC50 [9]: 0.148 µM; Activity (Candida albicans [10]): 2.7%; Activity (Candida albicans [11]): 5.6%; Activity (Candida albicans [12]): 29.5%; Activity (Candida albicans [13]): 18.59%; MIC50 (Candida albicans [4]): > 8 µg/mL; Activity (Candida albicans [14]): 1.83%; Activity (Candida albicans [15]): 40.6%; Activity (Candida albicans [16]): 21.6%; MIC50 (Candida albicans [5]): > 8 µg/mL; MIC50 (Candida albicans [6]): > 8 µg/mL; MIC50 (Candida albicans [7]): > 8 µg/mL; Activity (Candida albicans [17]): 76.56% |
| CC(C)[C@H](NC(=O)c1ccc2c(c1)OCCO2)C(=O)Nc1cccnc1 | 1 µg/mL (≈ 2.81 µM) | 1 µg/mL (≈ 2.81 µM) | 0.25 µg/mL (≈ 0.703 µM) | > 8 µg/mL | 0.5 µg/mL (≈ 1.41 µM) |  |
| O=C(N[C@H](Cc1ccccc1)Cn1cncn1)c1cccc2c1OCCO2 | 0.5 µg/mL (≈ 1.37 µM) | 0.25 µg/mL (≈ 0.686 µM) | 0.25 µg/mL (≈ 0.686 µM) | 4 µg/mL (≈ 11 µM) | 0.5 µg/mL (≈ 1.37 µM) |  |
| CCC(C)[C@H](NC(=O)c1ccc2c(c1)OCCO2)C(=O)Nc1cccnc1 (stereo not given in full) | 1 µg/mL (≈ 2.71 µM) | 2 µg/mL (≈ 5.41 µM) | 0.5 µg/mL (≈ 1.35 µM) | 4 µg/mL (≈ 10.8 µM) | 1 µg/mL (≈ 2.71 µM) |  |
| CC(C)[C@H](NC(=O)c1ccc2c(c1)OCCO2)C(=O)Nc1ccncc1 | 0.5 µg/mL (≈ 1.41 µM) | 0.5 µg/mL (≈ 1.41 µM) | 0.5 µg/mL (≈ 1.41 µM) | > 8 µg/mL | 0.25 µg/mL (≈ 0.703 µM) |  |
| O=C(N[C@H](Cc1ccccc1)Cn1ccnc1)c1cccc2c1OCCO2 | 0.25 µg/mL (≈ 0.688 µM) | 0.25 µg/mL (≈ 0.688 µM) | 0.5 µg/mL (≈ 1.38 µM) | > 8 µg/mL | 0.5 µg/mL (≈ 1.38 µM) | MIC50 (Candida albicans [2]): 0.5 µg/mL (≈ 1.38 µM) |
| CCC(C)[C@H](NC(=O)c1ccc2c(c1)OCCO2)C(=O)N[C@@H](Cn1cncn1)c1ccccc1 (stereo not given in full) | 0.5 µg/mL (≈ 1.08 µM) | 0.25 µg/mL (≈ 0.539 µM) | 0.25 µg/mL (≈ 0.539 µM) | 4 µg/mL (≈ 8.63 µM) | 0.25 µg/mL (≈ 0.539 µM) |  |
| CCC(C)[C@H](NC(=O)c1cccc2c1OCCO2)C(=O)N[C@@H](Cn1cncn1)c1ccccc1 (stereo not given in full) | 0.5 µg/mL (≈ 1.08 µM) | 0.25 µg/mL (≈ 0.539 µM) | 0.125 µg/mL (≈ 0.27 µM) | 4 µg/mL (≈ 8.63 µM) | 0.25 µg/mL (≈ 0.539 µM) |  |
| CCC(C)[C@H](NC(=O)c1cccc2c1OCCO2)C(=O)N[C@@H](Cn1ccnc1)c1ccccc1 (stereo not given in full) | 0.25 µg/mL (≈ 0.54 µM) | 0.25 µg/mL (≈ 0.54 µM) | 0.5 µg/mL (≈ 1.08 µM) | > 8 µg/mL | 0.5 µg/mL (≈ 1.08 µM) |  |
| O=C(N[C@H](Cc1ccccc1)Cn1ccnc1)c1ccc2c(c1)OCCO2 | 0.25 µg/mL (≈ 0.688 µM) | 0.5 µg/mL (≈ 1.38 µM) | 0.5 µg/mL (≈ 1.38 µM) | 4 µg/mL (≈ 11 µM) | 0.5 µg/mL (≈ 1.38 µM) |  |
